# According to patent US6683103B2, “Sulfonamides for treatment of endothelin-mediated disorders” (Texas Biotechnology Corporation, priority 1997, dated 2004):
# What was measured:
# [1] = Solubility in aqueous media
# [2] = Stability of solutions, percent remaining by HPLC; assay type: physicochemical
smiles,measurement,setting,value
Cc1cc2c(cc1CC(=O)c1sccc1S(=O)(=O)Nc1onc(C)c1Cl)OCO2.[Na] [sodium],solubility compared to the neutral compound,[1],improved solubility over the neutral compound
same,percent remaining (HPLC),"[2]; 0.49 mg/mL, 1.5% PVP + 3.0% PG, 24 h",90.0%
same,percent remaining (HPLC),"[2]; 0.51 mg/mL, 5% dextrose, 24 h",99.4%
same,percent remaining (HPLC),"[2]; 0.51 mg/mL, normal saline, 24 h",96.9%
same,percent remaining (HPLC),"[2]; 0.57 mg/mL, 0.75% PVP + 1.5% PG, 24 h",74.4%
same,percent remaining (HPLC),"[2]; 20 mg/mL, 5% dextrose + 5% PG + citrate buffer, 0.3% w/v (pH 7.5), 26 h (4° C.)",97.2%
same,percent remaining (HPLC),"[2]; 20 mg/mL, 5% dextrose + 5% buffer (pH 7.0), 24 h",92.6%
same,percent remaining (HPLC),"[2]; 20 mg/mL, 5% dextrose + K-phosphate buffer, 2.5% w/v (pH 6), 24 h",84.6%
same,percent remaining (HPLC),"[2]; 20 mg/mL, 5% dextrose + K-phosphate buffer, 2.5% w/v (pH 7), 20 h",92.6%
same,percent remaining (HPLC),"[2]; 20 mg/mL, 5% dextrose + K-phosphate buffer, 2.5% w/v (pH 7.5), 24 h",93.4%
same,percent remaining (HPLC),"[2]; 20 mg/mL, 5% dextrose + citrate buffer, 0.3% w/v (pH 7.5), 27 h (4° C.)",96.6%
same,percent remaining (HPLC),"[2]; 20 mg/mL, 5% dextrose + citrate buffer, 0.3% w/v (pH 8), 21 h",92.9%
same,percent remaining (HPLC),"[2]; 20 mg/mL, 5% dextrose, 24 h (13° C.)",93.7%
same,percent remaining (HPLC),"[2]; 20 mg/mL, 5% dextrose, 25 h (10° C.)",93.7%
same,percent remaining (HPLC),"[2]; 20 mg/mL, 10% dextrose + 10% PG + Na-phosphate buffer, 0.3% w/v (pH 7.5), 24 h",90.7%
same,percent remaining (HPLC),"[2]; 20 mg/mL, 10% dextrose, 24 h",93.4%
same,percent remaining (HPLC),"[2]; 30 mg/mL, 5% dextrose, 24 h",92.2%
same,percent remaining (HPLC),"[2]; 30 mg/mL, 10% dextrose + 10% PG + citrate buffer, 0.3% w/v (pH 7.5), 24 h (4° C.)",98.0%
same,percent remaining (HPLC),"[2]; 30 mg/mL, 20% sorbitol, 24 h",93.2%
same,percent remaining (HPLC),"[2]; 100 mg/mL, 5% dextrose, 6 h",93.0%
same,percent remaining (HPLC),"[2]; 100 mg/mL, 10% dextrose +10% PG + citrate buffer, 0.3% w/v (pH 7.5), 24 h",94.2%
same,percent remaining (HPLC),"[2]; 100 mg/mL, 30% sorbitol, 24 h",93.2%
same,stability compared to the sodium hydrogen phosphate salt,[2]; certain aqueous formulations,as stable as the sodium hydrogen phosphate salt
same,percent remaining (HPLC),"[2]; mg/mL not given, 10% dextrose + 10% PG + Na-phosphate buffer, 0.3% w/v (pH 7.5), 24 h (4° C.)",97.4%
same,percent remaining (HPLC),"[2]; mg/mL not given, 10% dextrose + 10% PG + Na-phosphate buffer, 0.3% w/v (pH 8), 24 h (4° C.)",96.4%
same,percent remaining (HPLC),"[2]; mg/mL not given, 10% dextrose + 10% PG + citrate buffer, 0.3% w/v (pH 7.4), 24 h (4° C.)",97.6%
same,percent remaining (HPLC),"[2]; mg/mL not given, 10% dextrose + 10% PG, 24 h (4° C.)",97.6%
